Measured values published in patent US20110195845A1, “Constructs for Expressing Herbicide Tolerance Genes, Related Plants, and Related Trait Combinations” (Dow AgroSciences LLC, priority 2008, published 2011).

How the values were obtained:
Wildtype Arabidopsis = assay: Arabidopsis response to glufosinate applied postemergence; format: in vivo, Arabidopsis thaliana; details: for % Injury Ave / individuals with % Injury 20-40% / individuals with % Injury <20% / individuals with % Injury >40%: 2 WAT
Procedure: (§1) Seven days after planting (DAP) and again 11 DAP, T1 plants (cotyledon and 2-4-1f stage, respectively) were sprayed with a 0.016% solution of 2,4-D herbicide (456 g ae/L 2,4-D Amine 4, Dow AgroSciences LLC, Indianapolis, Ind.) at a spray volume of 10 ml/tray (703 L/ha) using a DeVilbiss compressed air spray tip to deliver an effective rate of 50 g ae/ha 2,4-D DMA per application. Survivors (plants actively growing) were identified 4-7 days after the final spraying and transplanted individually into 3-inch pots prepared with potting media (Metro Mix 360). Transplanted plants were covered with humidity domes for 3-4 days and placed in a 22° C. growth chamber as before or moved to directly to the greenhouse. Domes were subsequently removed and plants reared in the greenhouse (22±5° C., 50±30% RH, 14 h light:10 dark, minimum 500 μE/m^2s^1 natural+supplemental light) at least 1 day prior to testing for the ability of DSM-2 (v2) to provide glufosinate herbicide resistance.
(§2) T1 plants were then randomly assigned to various rates of glufosinate. For Arabidopsis 140 g ai/ha glufosinate is an effective dose to distinguish sensitive plants from ones with meaningful levels of resistance. Elevated rates were also applied to determine relative levels of resistance (280, 560, or 1120 g ai/ha).
(§3) All glufosinate herbicide applications were applied by track sprayer in a 187 L/ha spray volume. The commercial Liberty™ formulation (200 g ai/L, Bayer Crop Science, Research Triangle Park, N.C.).
(§4) The first Arabidopsis transformations were conducted using DSM-2 (v2) (plant optimized gene). T1 transformants were first selected from the background of untransformed seed using a 2,4-D DMA selection scheme. Over 100,000 T1 seed were screened and 260 2,4-D resistant plants (AAD-12 gene) were identified, equating to a transformation/selection frequency of 0.26% which is slightly higher than the normal range of selection frequency of constructs where AAD-12+2,4-D are used for selection. T1 plants selected above were subsequently transplanted to individual pots and sprayed with various rates of commercial glufosinate herbicide. Table 10 compares the response of DSM-2 (v2) and control genes to impart glufosinate resistance to Arabidopsis T1 transformants. Response is presented in terms of % visual injury 2 WAT. […] Since each T1 is an independent transformation event, one can expect significant variation of individual T1 responses within a given rate. An arithmetic mean and standard deviation is presented for each treatment. Untransformed-wildtype Arabidopsis served as a glufosinate sensitive control. The DSM-2 (v2) gene imparted herbicide resistance to individual T1 Arabidopsis plants. Within a given treatment, the level of plant response varied greatly and can be attributed to the fact each plant represents an independent transformation event. Of important note, at above 140 g ai/ha glufosinate, there were individuals that were unaffected while some were severely affected.

[1] = tested on: PAT gene + AAD-12 transformed T1 Arabidopsis; assay: T1 Arabidopsis response to glufosinate applied postemergence; format: in vivo, Arabidopsis thaliana; details: 2 WAT
Procedure: as §1, §2, §3, §4

[2] = tested on: DSM-2 (v2) gene + AAD-12 transformed T1 Arabidopsis; assay: as above; format: in vivo, Arabidopsis thaliana; details: for % Injury Ave / individuals with % Injury 20-40% / individuals with % Injury <20% / individuals with % Injury >40%: 2 WAT
Procedure: as §1, §2, §3, §4

[3] = tested on: Escherichia coli BL21-Star (DE3) with AtUbi10 promoter//PAT (3779); assay: Plant promoter driven complementation on glufosinate, plasmid 3779; format: cell-based; parameters: key: ++++ = Heavy Lawn Growth; +++ = Lawn Growth; ++ = Lots of Distinct Colonies; + = Scattered Colony Growth; details: 48 hrs @37 C
Procedure: (§5) Plasmid constructs in which the DSM-2 (v2) and PAT gene coding sequences were expressed, under either the viral promoters CsVMV or the plant promoter AtUbi10, were assayed for complementation on minimal media containing glufosinate. The plasmids 3778 (Rb7 MARv3//AtUbi10 promoter//DSM-2 (v2)//Atu Orf 1 3′UTR), 3779 (Rb7 MARv3//AtUbi10 promoter//PAT//Atu Orf 1 3′UTR), 3264 (CsVMV promoter//DSM-2//Atu Orf 24 3′UTR), 3037 (CsVMV promoter//PAT//Atu Orf 25/26 3′UTR), and 770 (control plasmid containing CsVMV promoter//GUS v3//Atu Orf 24 3′UTR) were transformed into Escherichia coli BL21-Star (DE3) and grown up in complex media. Five microliters of the cultures were plated on minimal media containing increasing concentrations of Glufosinate and incubated at 37° C. for 48 hours.

[4] = tested on: Escherichia coli BL21-Star (DE3) with CsVMV promoter//PAT (3037); assay: Viral promoter driven complementation on glufosinate, plasmid 3037; format: cell-based; details: 48 hrs @37 C; note: key: ++++ = Heavy Lawn Growth; +++ = Lawn Growth; ++ = Lots of Distinct Colonies; + = Scattered Colony Growth
Procedure: as §5

[5] = 140 g ai/ha glufosinate postemergence
[6] = 280 g ai/ha glufosinate postemergence
[7] = 560 g ai/ha glufosinate postemergence
[8] = 1120 g ai/ha glufosinate postemergence

CP(=O)(O)CCC(N)C(=O)O (stereo not drawn) [glufosinate]
98.0%: % Injury Ave (Wildtype Arabidopsis; [5])
140 g ai/ha: effective dose to distinguish sensitive plants from ones with meaningful levels of resistance (Wildtype Arabidopsis; Arabidopsis)
1: individuals with % Injury 20-40% [2, 6] | individuals with % Injury >40% [2, 7] | individuals with % Injury 20-40% [2, 8]
+: bacterial growth on minimal media ([4]; 500 μg/ml BASTA)
19: individuals with % Injury <20% [2, 6] | individuals with % Injury <20% [2, 7]
0.0%: % Injury Ave [1, 5] | % Injury Ave [1, 6] | % Injury Ave [1, 7] | % Injury Ave [2, 5]
100.0%: % Injury Ave (Wildtype Arabidopsis; [6]) | % Injury Ave (Wildtype Arabidopsis; [7]) | % Injury Ave (Wildtype Arabidopsis; [8])
10: individuals with % Injury >40% (Wildtype Arabidopsis; [5]) | individuals with % Injury >40% (Wildtype Arabidopsis; [6]) | individuals with % Injury >40% (Wildtype Arabidopsis; [7]) | individuals with % Injury >40% (Wildtype Arabidopsis; [8]) | individuals with % Injury <20% [1, 5] | individuals with % Injury <20% [1, 6] | individuals with % Injury <20% [1, 7] | individuals with % Injury <20% [1, 8]
20: individuals with % Injury <20% [2, 5]
little or no injury: injury of surviving individuals ([2]; 1,120 g ai/ha glufosinate, many individuals)
2: individuals with % Injury >40% [2, 8]
13.0%: % Injury Ave [2, 8]
3.0%: % Injury Ave [1, 8] | % Injury Ave [2, 6]
+++: bacterial growth on minimal media ([3]; 500 μg/ml BASTA) | bacterial growth on minimal media ([3]; 1000 μg/ml BASTA) | bacterial growth on minimal media ([3]; 2000 μg/ml BASTA) | bacterial growth on minimal media ([3]; 4000 μg/ml BASTA)
0: individuals with % Injury 20-40% (Wildtype Arabidopsis; [5]) | individuals with % Injury <20% (Wildtype Arabidopsis; [5]) | individuals with % Injury 20-40% (Wildtype Arabidopsis; [6]) | individuals with % Injury <20% (Wildtype Arabidopsis; [6]) | individuals with % Injury 20-40% (Wildtype Arabidopsis; [7]) | individuals with % Injury <20% (Wildtype Arabidopsis; [7]) | individuals with % Injury 20-40% (Wildtype Arabidopsis; [8]) | individuals with % Injury <20% (Wildtype Arabidopsis; [8]) | individuals with % Injury 20-40% [1, 5] | individuals with % Injury >40% [1, 5] | individuals with % Injury 20-40% [1, 6] | individuals with % Injury >40% [1, 6] | individuals with % Injury 20-40% [1, 7] | individuals with % Injury >40% [1, 7] | individuals with % Injury 20-40% [1, 8] | individuals with % Injury >40% [1, 8] | individuals with % Injury 20-40% [2, 5] | individuals with % Injury >40% [2, 5] | individuals with % Injury >40% [2, 6] | individuals with % Injury 20-40% [2, 7]
6.0%: % Injury Ave [2, 7]
++: bacterial growth on minimal media ([4]; 250 μg/ml BASTA)
++++: bacterial growth on minimal media ([3]; 250 μg/ml BASTA)
17: individuals with % Injury <20% [2, 8]
